Where “and” joins values, the source holds several entries; their conditions need not be identical. Identical values can stand only once.
What was measured:
[1] = test system: TAA-induced liver fibrosis; test: TAA-induced liver fibrosis in mice (Example 7); format: in vivo, C57BL/6 mice; conditions: three times per week from second week, TAA 6 weeks
Method: A total of 30 male C57BL/6 mice were divided into three groups: blank group (n=10); TAA liver fibrosis group (n=10); treatment group (n=10).
Celastrol was dissolved in a solvent to obtain a celastrol solution at a concentration of 2 mg/mL, wherein the solvent consisted of 1% DMSO, 2% Tween 80, and 97% water (v:v:v); for intragastrical administration, the dosage of celastrol was 10 mg/kg/time, three times per week, and the administration was absent in the first week. TAA was dissolved in 0.9% NaCl solution to prepare a NaCl solution of TAA at a concentration of […], and the dosage for intraperitoneal administration was 100 mg/kg/time in the first week and 160 mg/kg/time in the second to sixth week, three times per week.
The model group and the treatment group were administrated with TAA three times per week, and administered every other day. The dosage of TAA was 100 mg/kg each time during the first week. From the second week onwards, the dosage of TAA administered to the model group and the treatment group was changed to 160 mg/kg each time. The blank group was given an equal dosage of NaCl solution.
The treatment group was administrated with celastrol from the second week, in which celastrol at a dosage of 10 mg/kg was administered 1 hour after administration with TAA. The blank group and the model group were administrated with an equal dosage of solvent (1% DMSO, 2% Tween 80, and 97% water (v: v: v)).
Six weeks later, mice were sacrificed by CO2 anesthesia, and mouse plasma samples and liver samples were collected. The eyeballs of the mice were taken for blood collection. The plasma samples were placed on ice for 1-2 hours, centrifuged at 4000 g for 5 minutes at 4° C., and the supernatants of plasma samples were taken to determine the plasma biochemical indicators, the levels of ALT, AST, and ALP.
Part of the collected mouse liver tissue was fixed overnight in formalin, and tissue sections were stained with hematoxylin and eosin (H&E).

[2] = test system: ANIT-induced cholestatic liver injury; test: ANIT-induced mouse cholestatic liver injury (Example 1); format: in vivo, C57BL/6 mice
Method: A total of 18 male C57BL/6 mice were divided into three groups: blank group (n=6); model group (n=6); treatment group (n=6).
Celastrol was dissolved in a solvent to obtain a celastrol solution at a concentration of 2 mg/mL, wherein the solvent consisted of 1% DMSO, 2% Tween 80, and 97% water (v:v:v). For intragastrical administration, the dosage of celastrol was 10 mg/kg·d. ANIT was dissolved in corn oil to obtain a corn oil solution of ANIT at a concentration of 15 mg/mL, and the dosage of ANIT for intragastrical administration was 75 mg/kg.
The treatment group was intragastrically administered with the celastrol solution at a dosage of 10 mg/kg·d for five consecutive days. At the same time, the blank group and the model group were intragastrically administered with the same dosage of a solvent, wherein the solvent consisted of 1% DMSO, 2% Tween 80 and 97% water (v:v:v), and the solvent was administrated for five consecutive days.
On the third day of administration, ANIT model was established. 4 Hours after administration with the solvent or celastrol solution, the model group and the treatment group were respectively intragastrically administered with the ANIT corn oil solution to induce cholestatic liver injury at a dosage of 75 mg/kg for single administration, and the blank group was fed with an equal dosage of corn oil. After the model was established, the treatment group was continuously administrated with the celastrol solution, and the blank group and the model group was continuously administrated with the same dosage of solvent.
48 Hours after the model was established, the mice were sacrificed by CO2 anesthesia, and mouse livers and plasma samples were taken. The eyeballs of the mice were taken for blood collection. The plasma samples were placed on ice for 1-2 hours, centrifuged at 4000 g for 5 minutes at 4° C., and the supernatant was taken to determine the plasma biochemical indicators, the levels of ALT, AST and ALP.
At the same time, plasma samples were prepared: 10 μL of plasma sample was taken, mixed with 190 μL of 67% (v/v) acetonitrile (containing 5 μM internal standard chlorpropamide), centrifuged at 18000 g for 20 minutes at 4° C., and the supernatant was taken for sample injection.
Liver samples were prepared: 100 mg of liver samples were mixed well with 1 mL of 50% (v/v) acetonitrile (containing 5 μM internal standard chlorpropamide), shaken for 20 minutes at room temperature, and then centrifuged at 18000 g for 20 minutes at 4° C. Thereafter, 200 μL of the supernatant was taken and added with 200 μL of pure acetonitrile, vortexed for 1 minute, centrifuged at 18000 g for 20 minutes at 4° C., and the supernatant was taken for sample injection.
The liquid chromatography conditions were as follows: the injection volume was 5 μL; the column temperature was 45° C.; the flow rate of mobile phase was 0.3 mL/min; the gradient elution was that acetonitrile concentration changed from 2% to 98% during 16 minutes of operation, wherein the mobile phase (water/acetonitrile solution) contained 0.01% formic acid. The elution procedure was as follows: during 0-12th minute, the acetonitrile concentration changed from 2% to 98% at a constant rate; during 12-14th minute, the acetonitrile concentration was maintained at 98%; during 14-14.1th minute, the acetonitrile concentration changed from 98% to 2%; during 14.1-16th minute, the acetonitrile concentration was maintained at 2%. Mass spectrometry conditions were as follows: the temperature of dry gas was 350° C., the pressure of nebulizer was 35 psi, and the voltage of capillary was 3.5 kV.
Part of the collected mouse liver tissue was fixed overnight in formalin and tissue sections were stained with hematoxylin and eosin (H&E).

[3] = test system: ANIT-induced cholestatic liver injury in FXR knockout mice; test: Effect of FXR on celastrol activity in ANIT model (Example 5); format: in vivo, FXR knockout mice (C57BL/6J as background)
Description: The same experimental method of Example 1 was used, wherein the experimental animals were FXR knockout mice (C57BL/6J as background), and the FXR knockout mice were presented by Frank J. Gonzalez, a researcher of the Cancer Institute of National Institutes of Health, USA.

[4] = test system: TAA-induced cholestatic liver injury in FXR knockout mice; test: Effect of FXR on celastrol activity in TAA model (Example 6); format: in vivo, FXR knockout mice (C57BL/6J as background)
Description: The same experimental method of Example 2 was used, wherein the experimental animals were FXR knockout mice (C57BL/6J as background), and the FXR knockout mice were presented by Frank J. Gonzalez, a researcher of the Cancer Institute of National Institutes of Health, USA.

[5] = celastrol 10 mg/kg/time, P<0.05, FIG. 7D
[6] = celastrol 10 mg/kg·d intragastric 5 days, ANIT 75 mg/kg on day 3, 48 h after ANIT, n=6
[7] = celastrol 10 mg/kg·d intragastric 5 days, ANIT 75 mg/kg, 48 h after ANIT, n=6
[8] = method of Example 1, ANIT model, FIG. 5A

CC1=C(O)C(=O)C=C2C1=CC=C1[C@@]2(C)CC[C@@]2(C)[C@@H]3C[C@](C)(C(=O)O)CC[C@]3(C)CC[C@]12C [celastrol, Celastrol]
H&E staining: liver tissue damage and liver morphology ([1]; celastrol 10 mg/kg/time intragastric, n=10, FIG. 7C): reduced and the liver morphology was also significantly recovered | ALT level in plasma vs model group [1, 5]: significantly lower | AST level in plasma vs model group [1, 5]: significantly lower | Levels of bile acids in plasma vs ANIT model group ([2]; CA, DCA, TβMCA/TαMCA, TCA, THDCA/TUDCA, celastrol 10 mg/kg·d, FIG. 1D): significantly lower | Liver weight of mouse when sacrificed [2, 6]: 1.01 g and 1.01 ± 0.05 g | Liver weight/body weight [2, 6]: 4.66% and 4.66 ± 0.23 % | ALP in mouse plasma [2, 7]: 27.3 ± 3.7 U/l | ALT in mouse plasma [2, 7]: 54.0 ± 36.4 U/l | AST in mouse plasma [2, 7]: 72.0 ± 34.4 U/l | H&E staining of mouse liver tissue ([2]; celastrol 10 mg/kg·d intragastric, ANIT model, FIG. 1C): no obvious damage | Levels of bile acids in liver vs ANIT model group ([2]; ω-MCA, β-MCA, CA, DCA, TβMCA/TαMCA, TCA, GCA, TLCA, celastrol 10 mg/kg·d, FIG. 1E): significantly lower | Levels of bile acids in plasma vs ANIT model group ([3]; CA, DCA, TβMCA/TαMCA, TCA, THDCA/TUDCA, method of Example 1, FIG. 5B): no significant decrease | ALP level in plasma vs model group [3, 8]: no significant decrease | ALT level in plasma vs model group [3, 8]: no significant decrease | Levels of bile acids in plasma vs model group ([4]; co-MCA, DCA, TCA, THDCA/TUDCA, TCDCA, method of Example 2, FIG. 6E): no significant decrease | H&E staining of liver tissue ([4]; method of Example 2, TAA model, FIG. 6C): a severe necrosis of liver cells also occurred | AST level in plasma vs model group ([4]; method of Example 2, TAA model, FIG. 6D): no significant decrease
